Laboratory results taken from patent publication US10285962B2, “Glutarate compounds for treating ischemia-reperfusion injuries” (The Regents of the University of California, priority 2016, dated 2019).

Key:
[1] = test system: myocardial infarct size in IR injury; parameters: protection against IR injury (TTC stained cross-sections): dose or concentration left out as unconfirmed; details: for protection against IR injury (TTC stained cross-sections): single IV bolus at reperfusion
[2] = test system: electron flow through the ETC (Complex I, II, IV); test: electron flow through the ETC, OCR of isolated mouse heart mitochondria; assay type: biochemical
[3] = target: heart ATP synthase (complex V) (Mus musculus, UniProt P56480); test: respiration of mitochondria isolated from mouse heart (ATP synthase / complex V inhibition)

O=C(O)CCC(=O)O [succinate] was tested, and the “protection against IR injury (TTC stained cross-sections)” value [1] was “does not”.
With O=C(O)CCC(=O)C(=O)O [α-KG, α-ketoglutarate] the “electron flow through the ETC” value ([2]; isolated mouse heart mitochondria) was “does not affect”, the “Complex I, Complex II, or Complex IV respiration” value ([2]; sequential rotenone, succinate, antimycin A, TMPD) was “No difference” and the “reduction of infarct size” value ([1]; mouse, in vivo) was “about 70%”. For the same compound, the “protection in the presence of the HIF-1 inhibitor echinomycin” value ([1]; mouse, in vivo, iv) was “fully protective”, the “complex V activity” value ([3]; […]) was “inhibits” and the “state 3 respiration” value ([3]; initiated by 2 mM ADP) was “decreases”.
In the case of CC[C@H]1/C=C/C=C/C[C@@H](C)[C@H](O)[C@@](C)(O)C(=O)[C@@H](C)[C@H](O)[C@@H](C)C(=O)[C@@H](C)[C@H](O)[C@@H](C)/C=C/C(=O)O[C@@H]2[C@H](C)[C@H](CC1)O[C@]1(CC[C@H](C)[C@H](C[C@@H](C)O)O1)[C@H]2C [oligomycin], the toxicity ([1]; 5 μM, administered at the time of reperfusion) is reported as “toxic” and the myocardial infarct size ([1]; lower doses (e.g., 10 nM) given at reperfusion) is reported as “significantly reduce myocardial infarct size”.
With CC(C)(COP(=O)(O)OP(=O)(O)OC[C@H]1O[C@@H](n2cnc3c(N)ncnc32)[C@H](O)[C@@H]1OP(=O)(O)O)[C@@H](O)C(=O)NCCC(=O)NCCSC(=O)CCC(=O)O [succinyl-CoA] the “protection against IR injury (TTC stained cross-sections)” value [1] was “significant protection”.
